According to the NIST ThermoML archive (doi:10.1016/j.jct.2017.04.015):

Test: mn = molality of the nth substance listed, in mol/kg
Conditions: 101.3 kPa, Liquid; for speed of sound: Frequency=2 MHz, Linear variable-path acoustic interferometer; for mass density: Pycnometric method

[Cl-].[K+] [potassium chloride] + O
Conditions | mass density, 288.15 K [kg/m3] | mass density, 298.15 K [kg/m3] | mass density, 308.15 K [kg/m3] | speed of sound, 288.15 K [m/s] | speed of sound, 298.15 K [m/s] | speed of sound, 308.15 K [m/s]
m1 = 0.06 | 1002.26 | 1000.42 | 997.25 | 1467.4 | 1498.3 | 1522.2
m1 = 0.1 | 1003.48 | 1001.79 | 998.71 | 1469.6 | 1502.5 | 1525.1

CCN(CC)CCOC(=O)c1ccc(N)cc1.Cl [2-diethylaminoethyl p-aminobenzoate hydrochloride] + O
Conditions | mass density [kg/m3] | speed of sound [m/s]
288.15 K, m1 = 0.01 | 999.6 | 1467.5
288.15 K, m1 = 0.02 | 1000.1 | 1469.1
288.15 K, m1 = 0.0301 | 1000.6 | 1470.7
288.15 K, m1 = 0.04 | 1001.1 | 1472.3
288.15 K, m1 = 0.05 | 1001.6 | 1473.9
288.15 K, m1 = 0.055 | 1001.85 | 1474.7
288.15 K, m1 = 0.0599 | 1002.09 | 1475.4
288.15 K, m1 = 0.065 | 1002.34 | 1476.2
288.15 K, m1 = 0.0701 | 1002.6 | 1477
288.15 K, m1 = 0.0751 | 1002.85 | 1477.7
288.15 K, m1 = 0.0801 | 1003.1 | 1478.5
288.15 K, m1 = 0.0852 | 1003.35 | 1479.2
288.15 K, m1 = 0.0898 | 1003.58 | 1480
288.15 K, m1 = 0.0952 | 1003.85 | 1480.7
288.15 K, m1 = 0.1 | 1004.09 | 1481.4
298.15 K, m1 = 0.0098 | 997.52 | 1498.3
298.15 K, m1 = 0.0196 | 997.99 | 1499.9
298.15 K, m1 = 0.0297 | 998.49 | 1501.5
298.15 K, m1 = 0.0406 | 999.02 | 1503.2
298.15 K, m1 = 0.0492 | 999.44 | 1504.6
298.15 K, m1 = 0.0534 | 999.65 | 1505.3
298.15 K, m1 = 0.061 | 1000.02 | 1506.5
298.15 K, m1 = 0.0636 | 1000.15 | 1506.9
298.15 K, m1 = 0.0688 | 1000.4 | 1507.7
298.15 K, m1 = 0.0758 | 1000.74 | 1508.8
298.15 K, m1 = 0.0783 | 1000.86 | 1509.2
298.15 K, m1 = 0.0846 | 1001.17 | 1510.2
298.15 K, m1 = 0.09 | 1001.44 | 1511
298.15 K, m1 = 0.0951 | 1001.68 | 1511.7
298.15 K, m1 = 0.1003 | 1001.94 | 1512.5
308.15 K, m1 = 0.01 | 994.51 | 1521.4
308.15 K, m1 = 0.02 | 995 | 1523
308.15 K, m1 = 0.03 | 995.48 | 1524.6
308.15 K, m1 = 0.0401 | 995.97 | 1526.2
308.15 K, m1 = 0.0499 | 996.44 | 1527.8
308.15 K, m1 = 0.055 | 996.69 | 1528.6
308.15 K, m1 = 0.06 | 996.93 | 1529.4
308.15 K, m1 = 0.065 | 997.17 | 1530.1
308.15 K, m1 = 0.0698 | 997.4 | 1530.9
308.15 K, m1 = 0.075 | 997.65 | 1531.7
308.15 K, m1 = 0.0801 | 997.9 | 1532.5
308.15 K, m1 = 0.085 | 998.14 | 1533.2
308.15 K, m1 = 0.09 | 998.38 | 1534
308.15 K, m1 = 0.095 | 998.62 | 1534.7
308.15 K, m1 = 0.1 | 998.86 | 1535.4
